{"source": "patent US20070122363A1", "about": "“CORPOREAL DELIVERY OF CAROTENOIDS” (priority 2005, published 2007)", "origin": "cited, not measured here", "conditions": "50 mg daily, about 22,000 male physicians, versus placebo", "data": [{"smiles": "CC1=C(/C=C/C(C)=C/C=C/C(C)=C/C=C/C=C(C)/C=C/C=C(C)/C=C/C2=C(C)CCCC2(C)C)C(C)(C)CCC1", "note": "[beta-carotene, beta, beta-carotene]", "values": [{"measurement": "adverse health effects", "value": "no adverse health effects"}]}]}
